Data on 37 compounds can be found in US9221834B2 (Merck Sharp & Dohme Corp., priority 2010, dated 2015).

The structures appear in SMILES notation.

In one assay the target is T1, recombinant CETP (rCETP) (Homo sapiens, UniProt P11597).
T1 sequence (P11597 18-493): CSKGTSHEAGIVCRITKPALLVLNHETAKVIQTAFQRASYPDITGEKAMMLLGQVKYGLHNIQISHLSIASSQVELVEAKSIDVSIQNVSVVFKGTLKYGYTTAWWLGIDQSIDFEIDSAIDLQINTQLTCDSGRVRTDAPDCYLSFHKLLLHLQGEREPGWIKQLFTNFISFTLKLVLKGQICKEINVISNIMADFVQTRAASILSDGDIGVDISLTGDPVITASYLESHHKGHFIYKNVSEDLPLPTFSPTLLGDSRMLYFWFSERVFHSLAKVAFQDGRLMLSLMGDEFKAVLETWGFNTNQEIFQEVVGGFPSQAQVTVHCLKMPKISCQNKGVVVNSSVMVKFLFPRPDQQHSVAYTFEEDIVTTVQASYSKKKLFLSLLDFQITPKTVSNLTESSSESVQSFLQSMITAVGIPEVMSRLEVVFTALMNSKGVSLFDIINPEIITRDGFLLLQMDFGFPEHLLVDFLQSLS
Kind of assay: RTA assay using recombinant CETP (2% RTA). It counts as biochemical. The note with it: RTA assay in 2% human serum; read-out: IC50. The procedure: In Vitro Radioactive Assays of CETP-Catalyzed CE and TG Transfer (RTA Assay)
Reagents and sources are: [3H] cholesteryl oleate (GE #TRK.886), [3H]
Both assays measure the transfer of [3H] cholesteryl oleate or [3H]triolein from exogenous LDL to HDL.
After a brief vortex, the solution is sonicated until clear and mixed with 20 mL of fresh human serum. The mixture is incubated overnight at 37° C. […] Once isolated the particles are dialyzed 3× in CETP buffer (50 mM Tris, pH 7.4, 100 mM NaCl, 1 mM EDTA). Human HDL is purchased from Intracel and used as the acceptor particles.
Transfer assays are performed in a 96-well v-bottom polypropylene plate. […] 1 μL of each test compound diluted in DMSO is added to 47 μL of assay cocktail per well and incubated at 37° C. for 1 hour. To initiate the transfer reaction, 2 μL radiolabeled LDL is added. After an additional 60 min of incubation at 37° C., the transfer action is terminated by precipitation of LDL with an equal volume of 20% W/V PEG 8000. The plates are centrifuged at 2000 rpm for 30 minutes at 4° C. A 40 μL aliquot of the HDL-containing supernatant is transferred to a Packard Optiplate with 200 μL of MicroScint 20. After mixing, plates are counted by liquid scintillation. Counts present in the supernatant for blanks (wells containing only HDL acceptor, CETP buffer and DMSO) are subtracted from those containing test compounds and used to correct for non-specific transfer.
Comparison of the counts of samples with inhibitors to an uninhibited (DMSO only) positive control yield a percent inhibition. A plot of percent inhibition vs. log of inhibitor concentration, fit to a Sigmoidal 4 parameter equation is used to calculate IC50.
With `COC(=O)c1cc(-c2ccc(OC)c(-c3ccc(N4CCC4)nc3CN3C(=O)O[C@H](c4cc(C(F)(F)F)cc(C(F)(F)F)c4)[C@@H]3C)c2)c(C)s1` [Example 51], the IC50 stood at 12 nM.
On to `CCc1ccc(-c2ccc(C(=O)O)cc2C)cc1-c1cnc(N2CC(F)(F)C2)nc1CN1C(=O)O[C@H](c2cc(C(F)(F)F)cc(C(F)(F)F)c2)[C@@H]1C` [Example 162], for which the IC50 was determined as 6 nM.
Same read-out and setting: the result for `COc1ccc(C2CCC(O)C2)cc1-c1ccc(N2CCC2)nc1CN1C(=O)O[C@H](c2cc(C(F)(F)F)cc(C(F)(F)F)c2)[C@@H]1C` (mixture of isomers) [Example 262] reads 3 nM.
In the case of `COC(=O)[C@H]1CC[C@@H](c2ccc(OC)c(-c3ccc(N4CCC4)nc3CN3C(=O)O[C@H](c4cc(C(F)(F)F)cc(C(F)(F)F)c4)[C@@H]3C)c2)C1` (single isomer, unassigned) [Example 218], the IC50 was 12 nM.
With `COc1ccc(CCC(=O)O)cc1-c1cnc(N2CC(F)C2)nc1CN1C(=O)O[C@H](c2cc(C(F)(F)F)cc(C(F)(F)F)c2)[C@@H]1C` [Example 172], the IC50 amounted to 35 nM.
Take `COc1ccc([C@H]2CC[C@H](C(=O)OC)CC2)cc1-c1ccc(N2CCC2)nc1CN1C(=O)O[C@H](c2cccc(C(F)(F)F)c2)[C@@H]1C` [Example 194]: the IC50 was found to be 145 nM.
For the compound `COc1ccc(CCCO)cc1-c1ccc(N2CCC2)nc1CN1C(=O)O[C@H](c2cc(C(F)(F)F)cc(C(F)(F)F)c2)[C@@H]1C` [Example 264, (4S,5R)-3-({6-azetidin-1-yl-3-[5-(3-hydroxypropy)-2-methoxyphenyl]pyridin-2-yl}methyl)-5-[3,5-bis(trifluoromethyl)phenyl]-4-methyl-1,3-oxazolidin-2-one], the IC50 was found to be 2 nM.
For `COc1ccc([C@H]2CC[C@H](C(=O)O)CC2)cc1-c1cnc(N2CC(F)C2)nc1CN1C(=O)O[C@H](c2cc(C(F)(F)F)cc(C(F)(F)F)c2)[C@@H]1C` [Example 185], the IC50 turned out to be 12 nM.
As for `COc1ccc(-c2nn(C)c(C(=O)O)c2C)cc1-c1ccc(N2CCC2)nc1CN1C(=O)O[C@H](c2cc(C(F)(F)F)cc(C(F)(F)F)c2)[C@@H]1C` [Example 94], the IC50 is 12 nM.
Consider `COc1ccc([C@H]2CC[C@H](C(=O)O)CC2)cc1-c1ccc(N2CCC2)nc1CN1C(=O)O[C@H](c2cccc(C(F)(F)F)c2)[C@@H]1C` [Example 219], for which the IC50 worked out at 44 nM.
Consider `COC(=O)CC(C)(C)c1ccc(OC)c(-c2ccc(N3CCC3)nc2CN2C(=O)O[C@H](c3cc(C)cc(C)c3)[C@@H]2C)c1` [Example 202], for which the IC50 stood at 16 nM.
With `COc1ccc(-c2csc(C(=O)O)c2C)cc1-c1ccc(N2CCC2)nc1CN1C(=O)O[C@H](c2cc(C(F)(F)F)cc(C(F)(F)F)c2)[C@@H]1C` [Example 108], the IC50 amounted to 5 nM.
In the case of `COC(=O)c1ccc(-c2cc(-c3cnc(N4CC(OC)C4)nc3CN3C(=O)O[C@H](c4cc(C(F)(F)F)cc(C(F)(F)F)c4)[C@@H]3C)c(OC)cc2F)c(C)c1` [Example 136], the IC50 turned out to be 55 nM.
Regarding `COc1ccc(CCC(N)=O)cc1-c1ccc(N2CCC2)nc1CN1C(=O)O[C@H](c2cc(C)cc(C)c2)[C@@H]1C` [Example 249, 3-[3-(6-azetidin-1-yl-2-{[(4S,5R)-5-(3,5-dimethylphenyl)-4-methyl-2-oxo-1,3-oxazolidin-3-yl]methyl}pyridin-3-yl)-4-methoxyphenyl]propanamide], the IC50 amounted to 105 nM.
The same measure, in the same setting: under `COc1ccc(C(C)(C)CC(=O)O)cc1-c1ccc(N2CCC2)nc1CN1C(=O)O[C@H](c2cccc(C(F)(F)F)c2)[C@@H]1C` [Example 220] stands 330 nM; under `CCOC(=O)[C@@H]1C[C@@H]1c1ccc(OC)c(-c2ccc(N3CCC3)nc2CN2C(=O)O[C@H](c3cc(F)cc(F)c3)[C@@H]2C)c1` [Example 18], 62 nM.
Take `COc1cc(F)c(CCC(=O)O)cc1-c1ccc(N2CCC2)nc1CN1C(=O)O[C@H](c2cc(C(F)(F)F)cc(C(F)(F)F)c2)[C@@H]1C` [Example 79]: the IC50 worked out at 18 nM.
Regarding `COc1cc(F)c(CCC(=O)O)cc1-c1c(C)cc(N2CCC2)nc1CN1C(=O)O[C@H](c2cc(C(F)(F)F)cc(C(F)(F)F)c2)[C@@H]1C` [Example 69], the IC50 turned out to be 5 nM.
Take `COC(=O)c1c(C)c(-c2ccc(OC)c(-c3ccc(N4CCC4)nc3CN3C(=O)O[C@H](c4cc(C(F)(F)F)cc(C(F)(F)F)c4)[C@@H]3C)c2)nn1C` [Example 29]: the IC50 amounted to 14 nM.
As to `COC(=O)CC(C)(C)c1ccc(OC)c(-c2ccc(N3CCC3)nc2CN2C(=O)O[C@H](c3cccc(C(F)(F)F)c3)[C@@H]2C)c1` [Example 195], the IC50 worked out at 44 nM.
Regarding `COC(=O)CCc1ccc(OC2CC2)c(-c2ccc(N3CCC3)nc2CN2C(=O)O[C@H](c3cc(C(F)(F)F)cc(C(F)(F)F)c3)[C@@H]2C)c1` [Example 213], the IC50 worked out at 14 nM.
On the same count and under the same terms, the result for `CCOC(=O)[C@@H]1CC1c1ccc(OC)c(-c2cnc(N3CCC3)nc2CN2C(=O)O[C@H](c3cc(C(F)(F)F)cc(C(F)(F)F)c3)[C@@H]2C)c1` (stereo partly shown) [Example 124] reads 33 nM.
Take `COc1ccc(C2C[C@H]2C(=O)O)cc1-c1cnc(N2CCC2)nc1CN1C(=O)O[C@H](c2cccc(C(F)(F)F)c2)[C@@H]1C` (stereo partly shown) [Example 274]: the IC50 turned out to be 1620 nM.
For `COc1ccc([C@H]2CC[C@H](C(=O)O)CC2)cc1-c1ccc(N2CCC2)nc1CN1C(=O)O[C@H](c2cc(C(F)(F)F)cc(C(F)(F)F)c2)[C@@H]1C` [Example 73], the IC50 was 8 nM.
As for `CCc1ccc(-c2ccc(C(=O)O)cc2C)cc1-c1cnc(N2CC(OC)C2)nc1CN1C(=O)O[C@H](c2cc(C(F)(F)F)cc(C(F)(F)F)c2)[C@@H]1C` [Example 166], the IC50 is 46 nM.
On to `COc1ccc([C@H]2CC[C@H](C(=O)O)CC2)cc1-c1ccc(N2CCC2)nc1CN1C(=O)O[C@H](c2cc(F)c(F)c(F)c2)[C@@H]1C` [Example 101], for which the IC50 came to 37 nM.
Consider `COc1cc(F)c(-c2ncc(C(=O)O)cc2Cl)cc1-c1cnc(N2CC(F)(F)C2)nc1CN1C(=O)O[C@H](c2cc(C(F)(F)F)cc(C(F)(F)F)c2)[C@@H]1C` [Example 189], for which the IC50 was 5 nM.
As for `COc1ccc([C@H]2C[C@@H]2C(=O)O)cc1-c1ccc(N2CCC2)nc1CN1C(=O)O[C@H](c2cc(C(F)(F)F)cc(C(F)(F)F)c2)[C@@H]1C` [Example 75], the IC50 amounted to 9 nM.
Still for that read-out and setting: the result for `COc1ccc(-c2ccc(C(=O)O)cc2C)cc1-c1ccc(N2CCC2)nc1CN1C(=O)O[C@H](c2cccc(C(F)(F)F)c2)[C@@H]1C` [Example 235] reads 6 nM; that for `COc1ccc(CCC(=O)O)cc1-c1ccc(N2CC(F)(F)C2)nc1CN1C(=O)O[C@H](c2cccc(OC(F)(F)F)c2)[C@@H]1C` [Example 297], 375 nM.
`Cc1cc(C(=O)O)ccc1-c1cc(-c2cnc(N3CCC3)nc2CN2C(=O)O[C@H](c3cccc(C(F)(F)F)c3)[C@@H]2C)ccc1F` [Example 276]: the IC50 amounted to 76 nM.
As for `COc1ccc(CCC(=O)N2CCC2)cc1-c1cnc(N2CCC2)nc1CN1C(=O)O[C@H](c2cc(C(F)(F)F)cc(C(F)(F)F)c2)[C@@H]1C` [Example 193], the IC50 stood at 105 nM.
In the case of `COC(=O)C[C@H]1C[C@@H](c2ccc(OC)c(-c3ccc(N4CCC4)nc3CN3C(=O)O[C@H](c4cc(C(F)(F)F)cc(C(F)(F)F)c4)[C@@H]3C)c2)C1` [Example 25], the IC50 was 14 nM.
For the compound `COc1ccc(CCO)cc1-c1ccc(N2CCC2)nc1CN1C(=O)O[C@H](c2cc(C(F)(F)F)cc(C(F)(F)F)c2)[C@@H]1C` [Example 259, (4S,5R)-3-({6-azetidin-1-yl-3-[5-(2-hydroxyethyl)-2-methoxyphenyl]pyridin-2-yl}methyl)-5-[3,5-bis(trifluoromethyl)phenyl]-4-methyl-1,3-oxazolidin-2-one], the IC50 came to 4 nM.
In the case of `COc1cc(F)c(-c2ccc(C(=O)O)cc2C)cc1-c1cnc(N2CCC2)nc1CN1C(=O)O[C@H](c2ccc(F)cc2)[C@@H]1C` [Example 279], the IC50 is 189 nM.
Turning to `COc1ccc(CC(=O)O)cc1-c1ccc(N2CCC2)nc1CN1C(=O)O[C@H](c2cc(C(F)(F)F)cc(C(F)(F)F)c2)[C@@H]1C` [Example 80], the IC50 stood at 36 nM.

The same assay, now with this note: value printed with the example; serum level not stated there; read-out: RTA.
As for `COc1ccc(-c2ccc(C(=O)O)cc2C)cc1-c1cnc(N2CCC2)nc1CN1C(=O)O[C@H](c2cc(Cl)cc(Cl)c2)[C@@H]1C` [Example 302], the IC50 is 4.43 nM.
